Data: patent US9126947B2, “Substituted pyridazine carboxamide compounds” (Xcovery Holding Company LLC, priority 2010, dated 2015)

What was measured:
ALK = ALK (Homo sapiens (Human), UniProt Q9UM73); assay: Ambit kinase binding assay (ALK); conditions: read-out: ALK inhibitory activities in the Ambit assay (IC50)
Experimental: For most assays, kinase-tagged T7 phage strains were grown in parallel in 24-well blocks in an E. coli host derived from the BL21 strain. E. coli were grown to log-phase and infected with T7 phage from a frozen stock (multiplicity of infection 0.1) and incubated with shaking at 32° C. until lysis (˜90 minutes). The lysates were centrifuged (6,000×g) and filtered ([…]) to remove cell debris. The remaining kinases were produced in HEK-293 cells and subsequently tagged with DNA for qPCR detection. […] The liganded beads were blocked with excess biotin and washed with blocking buffer (SeaBlock (Pierce), 1% BSA, 0.05% Tween 20, 1 mM DTT) to remove unbound ligand and to reduce non-specific phage binding. […] Test compounds were prepared as 40× stocks in 100% DMSO and directly diluted into the assay. All reactions were performed in polypropylene 384-well plates in a final volume of 0.04 ml. […] The kinase concentration in the eluates was measured by qPCR.

c-Met = c-Met (Homo sapiens (Human), UniProt P08581); assay: Ambit kinase binding assay (c-Met)
Sequence of c-Met (P08581 25-1390): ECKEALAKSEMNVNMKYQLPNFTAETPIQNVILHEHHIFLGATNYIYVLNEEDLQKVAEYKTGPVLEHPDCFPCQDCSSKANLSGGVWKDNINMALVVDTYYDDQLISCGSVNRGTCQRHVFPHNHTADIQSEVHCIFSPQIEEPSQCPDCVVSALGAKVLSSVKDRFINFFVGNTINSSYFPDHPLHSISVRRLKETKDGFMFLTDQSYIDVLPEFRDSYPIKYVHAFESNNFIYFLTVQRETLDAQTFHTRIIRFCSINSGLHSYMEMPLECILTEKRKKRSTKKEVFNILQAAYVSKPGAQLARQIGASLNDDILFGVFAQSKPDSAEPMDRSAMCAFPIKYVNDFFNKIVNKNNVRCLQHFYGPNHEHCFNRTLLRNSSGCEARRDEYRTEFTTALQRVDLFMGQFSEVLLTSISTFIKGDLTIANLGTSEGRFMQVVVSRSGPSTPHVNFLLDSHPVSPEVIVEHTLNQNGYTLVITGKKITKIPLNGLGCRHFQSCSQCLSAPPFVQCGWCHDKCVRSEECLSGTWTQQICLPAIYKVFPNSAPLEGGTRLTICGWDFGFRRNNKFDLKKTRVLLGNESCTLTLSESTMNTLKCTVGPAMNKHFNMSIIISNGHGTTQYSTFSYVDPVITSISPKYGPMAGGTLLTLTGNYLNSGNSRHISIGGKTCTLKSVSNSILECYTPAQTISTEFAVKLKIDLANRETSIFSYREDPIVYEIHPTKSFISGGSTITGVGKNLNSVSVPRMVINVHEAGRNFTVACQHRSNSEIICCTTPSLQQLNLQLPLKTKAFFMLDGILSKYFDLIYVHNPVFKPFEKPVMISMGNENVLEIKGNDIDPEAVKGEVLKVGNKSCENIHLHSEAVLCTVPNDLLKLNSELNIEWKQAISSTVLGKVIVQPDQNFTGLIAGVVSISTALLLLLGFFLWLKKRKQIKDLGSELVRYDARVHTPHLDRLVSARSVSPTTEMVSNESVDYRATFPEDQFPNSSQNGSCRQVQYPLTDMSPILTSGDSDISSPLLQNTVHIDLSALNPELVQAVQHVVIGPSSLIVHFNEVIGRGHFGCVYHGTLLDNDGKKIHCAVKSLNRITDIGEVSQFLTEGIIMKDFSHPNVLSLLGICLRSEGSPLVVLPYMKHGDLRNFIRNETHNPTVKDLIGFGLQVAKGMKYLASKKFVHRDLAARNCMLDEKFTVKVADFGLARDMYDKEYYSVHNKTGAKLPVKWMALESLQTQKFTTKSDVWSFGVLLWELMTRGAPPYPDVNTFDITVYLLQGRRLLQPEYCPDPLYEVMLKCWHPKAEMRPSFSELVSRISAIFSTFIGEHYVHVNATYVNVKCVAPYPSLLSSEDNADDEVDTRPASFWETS
Experimental: Assays were performed as described in Fabian et al. (2005) Nature Biotechnology, vol. 23, p. 329 and in Karaman et al. (2008) Nature Biotechnology, vol. 26, p. 127.
For most assays, kinase-tagged T7 phage strains were grown in parallel in 24-well blocks in an E. coli host derived from the BL21 strain. E. coli were grown to log-phase and infected with T7 phage from a frozen stock (multiplicity of infection 0.1) and incubated with shaking at 32° C. until lysis (˜90 minutes). The lysates were centrifuged (6,000×g) and filtered ([…]) to remove cell debris. The remaining kinases were produced in HEK-293 cells and subsequently tagged with DNA for qPCR detection. Streptavidin-coated magnetic beads were treated with biotinylated small molecule ligands for 30 minutes at room temperature to generate affinity resins for kinase assays. The liganded beads were blocked with excess biotin and washed with blocking buffer (SeaBlock (Pierce), 1% BSA, 0.05% Tween 20, 1 mM DTT) to remove unbound ligand and to reduce non-specific phage binding. […] Test compounds were prepared as 40× stocks in 100% DMSO and directly diluted into the assay. All reactions were performed in polypropylene 384-well plates in a final volume of 0.04 ml. The assay plates were incubated at room temperature with shaking for 1 hour and the affinity beads were washed with wash buffer (1×PBS, 0.05% Tween 20). The beads were then re-suspended in elution buffer (1×PBS, 0.05% Tween 20, 0.5 mM non-biotinylated affinity ligand) and incubated at room temperature with shaking for 30 minutes. The kinase concentration in the eluates was measured by qPCR.

[1] = Human microsomal stability; assay type: in vitro ADME; conditions: compared with Example 25 of WO 2009/154769; 1 μM, 1 mg/mL microsomes
Experimental: Pooled human liver microsomes (1 mg/mL) are incubated at 37° C. in phosphate buffer (pH 7.4) with the test compound (1 μM). The reaction is started with the addition of NADPH. (1 mM final concentration). Incubations are stopped after 0, 5, 10, 20, 40, 60 minutes with the addition of organic solvent. Quenched samples are analyzed for unchanged test compound by LC/MS/MS detection. Percent turnover is determined by the ratio of the amount (peak area) of unchanged test compound remaining in incubated samples to the amount of unchanged test compound in non-incubated samples (0 minutes). Half-life is calculated based on the percent turnover data.

H3122 tumor cells = assay: Cell viability assay of tumor cells with ALK fusion proteins (H3122); assay type: cell-based; conditions: Homo sapiens, NCI-H3122; H3122, 72 hours post drug addition; read-out: Inhibition of H3122 tumor cell growth (IC50)
Experimental: (§1) At 72 hours post drug addition, Cell Titer Blue Reagent (Promega, Madison, Wis.) was added and fluorescence was measured on a Spectramax spectrophotometer (Molecular Devices, Sunnyvale, Calif.) according to the manufacturer's instructions. All experimental points were set up in hextuplicate replicates and were performed at least two independent times. IC50's were calculated using GraphPad Prism version 5 for Windows. The curves were fit using a nonlinear regression model with a log (inhibitor) vs. response formula.

H2228 tumor cells = assay: Cell viability assay of tumor cells with ALK fusion proteins (H2228); assay type: cell-based; conditions: Homo sapiens, NCI-H2228; H2228, 72 hours post drug addition; read-out: Inhibition of H2228 tumor cell growth (IC50)
Experimental: as §1

H3122 cells = assay: Cell apoptosis assay of tumor cells with ALK fusion proteins; assay type: cell-based; conditions: compared with PF-2341066 at the same concentration, 72 h, FIG. 1
Experimental: For apoptosis experiments, cells were seeded in 12 well plates at 25% confluency and treated in triplicate with ALK TKI. At 72 h post drug addition, cells were collected, washed in PBS, and stained with annexin V and propidium iodide according to the manufacturer's instructions (Vybrant Apooptosis Assay Kit, Invitrogen, Carlsbad, Calif.). Data were collected on a FACSCanto II (BD Biosciences, San Jose, Calif.) and processed using WinList flow cytometry analysis software (Verity Software, Topsham, Me.).

Brain penetration = assay type: in vivo; conditions: mice, two hours after dosing; compared with Example 1
Experimental: To determine if a compound can cross the blood-brain-barrier (BBB), mice are dosed with the test compound. Two hours after dosing, mice are sacrificed and blood and brain tissues are collected and analyzed for test compound concentration. Brain penetration is defined as ratio of compound concentration in the brain tissues to that in plasma.

[2] = system: SH-SY5Y intracranial tumor; assay: SH-SY5Y intracranial tumor model; assay type: in vivo, Balb/C nude mice; conditions: oral gavage, vehicle 25 days
Experimental: Balb/C nude mice were anesthetized by i.p. injection of pentobarbital sodium (100 mg/kg body weight). One million SH-SY5Y cells in a volume of 10 μl full-culture medium were injected into the caudate putamen region using a small animal stereotactic apparatus. On the 7th day after implantation, the tumor-bearing mice were assigned into 4 groups, PF-1066, Example 18 low dose, Example 18 high dose, and vehicle were given twice daily (BID) by oral gavage, treatment was stopped until the animal is dead. Animal survival and body weight were observed and recorded.

Sequence of ALK (Q9UM73 19-1620): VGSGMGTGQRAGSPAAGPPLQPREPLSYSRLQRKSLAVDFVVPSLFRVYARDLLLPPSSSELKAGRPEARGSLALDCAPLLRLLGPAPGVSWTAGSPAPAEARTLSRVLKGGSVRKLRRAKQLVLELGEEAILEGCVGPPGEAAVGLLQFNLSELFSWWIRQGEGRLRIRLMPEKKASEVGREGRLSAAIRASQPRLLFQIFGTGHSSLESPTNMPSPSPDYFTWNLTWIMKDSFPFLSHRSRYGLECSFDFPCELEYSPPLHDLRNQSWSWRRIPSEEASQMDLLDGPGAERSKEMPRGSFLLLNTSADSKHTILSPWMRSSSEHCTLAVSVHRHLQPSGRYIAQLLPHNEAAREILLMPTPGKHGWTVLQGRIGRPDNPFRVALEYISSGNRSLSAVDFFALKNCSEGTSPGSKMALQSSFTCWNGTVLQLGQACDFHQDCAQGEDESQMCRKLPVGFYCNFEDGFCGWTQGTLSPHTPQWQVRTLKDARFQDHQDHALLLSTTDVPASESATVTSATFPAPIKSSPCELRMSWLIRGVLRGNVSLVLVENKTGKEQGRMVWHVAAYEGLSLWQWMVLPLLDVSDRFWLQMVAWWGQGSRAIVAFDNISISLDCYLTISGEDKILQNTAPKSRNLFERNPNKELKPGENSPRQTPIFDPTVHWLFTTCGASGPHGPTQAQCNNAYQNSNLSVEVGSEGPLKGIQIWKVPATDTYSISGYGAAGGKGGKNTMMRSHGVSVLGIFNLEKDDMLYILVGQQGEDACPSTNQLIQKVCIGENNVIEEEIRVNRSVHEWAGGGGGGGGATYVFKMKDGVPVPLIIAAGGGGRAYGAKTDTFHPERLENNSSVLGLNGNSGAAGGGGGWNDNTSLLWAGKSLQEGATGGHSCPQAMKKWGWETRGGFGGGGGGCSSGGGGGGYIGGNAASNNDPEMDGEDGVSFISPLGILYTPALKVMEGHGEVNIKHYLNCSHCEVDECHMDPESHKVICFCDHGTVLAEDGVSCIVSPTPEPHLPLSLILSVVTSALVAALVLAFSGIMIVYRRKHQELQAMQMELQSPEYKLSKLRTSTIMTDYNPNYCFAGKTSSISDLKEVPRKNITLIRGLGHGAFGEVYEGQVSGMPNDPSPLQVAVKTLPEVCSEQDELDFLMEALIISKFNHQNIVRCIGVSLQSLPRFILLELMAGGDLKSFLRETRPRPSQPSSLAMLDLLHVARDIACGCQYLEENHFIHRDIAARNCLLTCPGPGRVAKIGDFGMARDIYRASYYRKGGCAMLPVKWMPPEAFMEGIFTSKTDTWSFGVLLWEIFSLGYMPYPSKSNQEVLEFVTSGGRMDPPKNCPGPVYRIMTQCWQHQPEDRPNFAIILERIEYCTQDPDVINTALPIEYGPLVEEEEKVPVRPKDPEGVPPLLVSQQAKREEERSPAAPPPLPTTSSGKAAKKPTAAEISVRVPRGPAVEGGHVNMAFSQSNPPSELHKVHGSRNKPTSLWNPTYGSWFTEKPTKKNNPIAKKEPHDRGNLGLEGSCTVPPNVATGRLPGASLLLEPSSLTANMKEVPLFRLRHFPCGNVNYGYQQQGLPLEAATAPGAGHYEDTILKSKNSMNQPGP

Compound: CC(Oc1cc(C(=O)Nc2ccc(N3CCOCC3)cc2)nnc1N)c1c(Cl)ccc(F)c1Cl (centres unmarked) [c, reference compound]
- IC50 (ALK): > 10 nM
- IC50 (c-Met): < 20 nM

Compound: C[C@@H](Oc1cc(C(=O)Nc2ccc(C(=O)N3CCCNCC3)cc2)nnc1N)c1c(Cl)ccc(F)c1Cl [Example 16, {5-[(1R)-1-(2,6-dichloro-3-fluorophenyl)ethoxy]-6-aminopyridazin-3-yl}-N-[4-(1,4-diazaperhydroepinylcarbonyl)phenyl]carboxamide]
- IC50 (ALK): < 1 nM
- Half-life in human liver microsomes [1]: longer half-life
- IC50 (H3122 tumor cells): < 30 nM
- IC50 (H2228 tumor cells): < 100 nM

Compound: C[C@@H](Oc1cc(C(=O)Nc2ccc(C(=O)N3CCNC(C)(C)C3)cc2)nnc1N)c1c(Cl)ccc(F)c1Cl [Example 17, {5-[(1R)-1-(2,6-dichloro-3-fluorophenyl)ethoxy]-6-aminopyridazin-3-yl}-N-{4-[(3,3-dimethylpiperazinyl)carbonyl]phenyl}carboxamide]
- IC50 (ALK): < 1 nM

Compound: CC(Oc1cc(C(=O)Nc2ccncc2)nnc1N)c1c(Cl)ccc(F)c1Cl (centres unmarked) [a, reference compound]
- IC50 (ALK): > 10 nM
- IC50 (c-Met): < 20 nM

Compound: C[C@@H](Oc1cc(C(=O)Nc2ccc(C(=O)N3CCN(C)CC3)cc2)nnc1N)c1c(Cl)ccc(F)c1Cl [Example 1, {5-[(1R)-1-(2,6-dichloro-3-fluorophenyl)ethoxy]-6-aminopyridazin-3-yl}-N-{4-[(4-methylpiperazinyl)carbonyl]phenyl}carboxamide]
- Induction of apoptosis in H3122 cells (H3122 cells): more effective
- IC50 (ALK): < 1 nM
- IC50 (H3122 tumor cells): < 50 nM
- IC50 (H2228 tumor cells): < 100 nM

Compound: C[C@@H]1CN(C(=O)c2ccc(NC(=O)c3cc(O[C@H](C)c4c(Cl)ccc(F)c4Cl)c(N)nn3)cc2)C[C@H](C)N1 [Example 18, {5-[(1R)-1-(2,6-dichloro-3-fluorophenyl)ethoxy]-6-aminopyridazin-3-yl}-N-{4-[((3S,5R)-3,5-dimethylpiperazinyl)carbonyl]phenyl}carboxamide]
- IC50 (ALK): < 1 nM
- Half-life in human liver microsomes [1]: longer half-life
- IC50 (H3122 tumor cells): < 30 nM
- Brain penetration (ratio of concentration in brain tissues to plasma) (Brain penetration): higher brain penetration
- IC50 (H2228 tumor cells): < 100 nM
- Median survival time (MST) ([2]; 25 mg/kg BID): 25 days
- Median survival time (MST) ([2]; 50 mg/kg BID): 34.5 days

Compound: C[C@@H](Oc1cc(-c2cnn(C3CCNCC3)c2)cnc1N)c1c(Cl)ccc(F)c1Cl [PF-2341066, crizotinib, reference compound]
- Median survival time (MST) ([2]; 50 mg/kg BID): 28 days

Compound: C[C@@H](Oc1cc(C(=O)Nc2ccc(C(=O)N3CCN4CCCC4C3)cc2)nnc1N)c1c(Cl)ccc(F)c1Cl (stereo partly drawn) [Example 13, {5-[(1R)-1-(2,6-dichloro-3-fluorophenyl)ethoxy]-6-aminopyridazin-3-yl}-N-{4-[(3,6-diazabicyclo[4.3.0]non-3-yl)carbonyl]phenyl}carboxamide]
- IC50 (ALK): < 1 nM

Compound: C[C@@H](Oc1cc(C(=O)Nc2ccc(C(=O)N3CCCN(C)CC3)cc2)nnc1N)c1c(Cl)ccc(F)c1Cl [Example 15, {5-[(1R)-1-(2,6-dichloro-3-fluorophenyl)ethoxy]-6-aminopyridazin-3-yl}-N-{4-[(4-methyl(1,4-diazaperhydroepinyl))carbonyl]phenyl}carboxamide]
- IC50 (ALK): < 1 nM

Compound: COc1ccc(NC(=O)c2cc(OC(C)c3c(Cl)ccc(F)c3Cl)c(N)nn2)cc1 (centres unmarked) [b, reference compound]
- IC50 (ALK): > 10 nM
- IC50 (c-Met): < 20 nM

Compound: C[C@H](Oc1cc(C(=O)Nc2ccc(C(=O)N3CCN(C)CC3)cc2)nnc1N)c1c(Cl)ccc(F)c1Cl [Example 2, {5-[(1S)-1-(2,6-dichloro-3-fluorophenyl)ethoxy]-6-aminopyridazin-3-yl}-N-{4-[(4-methylpiperazinyl)carbonyl]phenyl}carboxamide]
- IC50 (ALK): > 50 nM
